{"source": "patent US6369114B1", "about": "“Administration of an α2-adrenergic receptor agonist to enhance cardiopulmonary resuscitation” (Institute of Critical Care Medicine, priority 1999, dated 2002)", "key": {"[1]": {"tested_on": "post-resuscitation myocardial dysfunction, ventricular arrhythmias and survival", "experiment": "Ventricular fibrillation cardiac arrest with precordial compression and defibrillation in rats (Example 1)", "type": "in vivo, Sprague-Dawley rats", "conditions": "for duration of post-resuscitation survival: VF untreated 8 min, drug after 2 min precordial compression, α-methylnorepinephrine 100 μg/kg, epinephrine 30 μg/kg, FIG. 4; for resuscitation outcome: defibrillation attempted 4 min after drug", "experimental": "Sprague-Dawley rats (450-570 g) were fasted overnight except for free access to water. The animals were anesthetized by intraperitoneal injection of 45 mg/kg pentobarbital sodium supplemented with additional doses of 10 mg/kg at hourly intervals, except that no pentobarbital was administered for 30 minutes before induction of cardiac arrest. The trachea was orally intubated with a 14-gauge cannula (Quick-Cath, Vicra division, Travenol Laboratory) mounted on a blunt needle with a 145° angled tip. For measurement of the partial pressure of carbon dioxide in the endotracheum (PETCO2), the respiratory gas was sampled through a side manifold interposed between the tracheal cannula and the respirator. The PCO2 was measured with a side-stream infrared CO2 analyzer (model 200, Instrumentation Laboratories). For measurement of left ventricular pressure, and both dP/dt40 (the rate of left ventricular pressure increase measured at a left ventricular pressure of 40 mm Hg, an indicator of isovolemic contractility) and negative dP/dt (the rate of left ventricular pressure decline, a measure of myocardial relaxation), a Teflon catheter (UTX 022; internal diameter, 0.6 mm; outer diameter, 0.97 mm; length 8 cm; Becton Dickinson) was advanced into the left ventricle from the right carotid artery. […] Guided by pressure monitoring, the catheter was slowly withdrawn into the right atrium. Right atrial pressure was measured with reference to the midchest with a high-sensitivity transducer (P-23-9b, Spectramed). This catheter was also used to sample blood from the right atrium. Through the right external jugular vein, a 3F pediatric radial artery catheter (model C-PUM-301J, Cook) was advanced into the right atrium. A precurved guide wire supplied with the catheter was then advanced through the catheter into the right ventricle until an endocardial ECG was observed. Through the right femoral artery, a Teflon catheter (UTX 022, Becton Dickinson) was advanced into the thoracic aorta for measurement of aortic pressure with a model TNF-R transducer (Abbott Critical Care). […] Rectal temperature was measured continuously with a rectal thermistor. Conventional lead II ECGs were recorded with skin electrodes (model E220, In-vivo Metric).\nVentricular fibrillation (VF) was induced and untreated for 8 minutes. Precordial compression (PC) was then initiated. After 2 minutes of precordial compression, animals were randomized to receive either the selective α2-adrenergic agent, α-methylnorepinephrine (100 μg/kg; catalog number M133, Research Biochemicals International; abbreviated “α-methylnorepi.”), epinephrine (30 μg/kg; abbreviated “epi.”) or saline placebo. Defibrillation (DF) was attempted 4 min. later. […] Baseline (BL) or control values are shown at the left of the figures."}, "[2]": {"tested_on": "post-resuscitation left ventricular function and ventricular arrhythmias", "experiment": "Ventricular fibrillation cardiac arrest with precordial compression and defibrillation in pigs (Example 2)", "type": "in vivo, Male domestic pigs", "conditions": "for resuscitation outcome: defibrillation attempted 4 min after drug", "experimental": "Male domestic pigs weighing between 40 and 45 kg were fasted overnight except for free access to water. Anesthesia was initiated by intramuscular injection of ketamine (20 mg/kg) and completed by ear vein injection of sodium pentobarbital (30 mg/kg). Additional doses of sodium pentobarbital (8 mg/kg) were injected at intervals of 1 h to maintain anesthesia. A cuffed endotracheal tube was advanced into the trachea. Animals were mechanically ventilated with a volume-controlled ventilator (Model MA-1; Puritan-Bennett, Carlsbad, Calif.). End tidal PCO2 (PETCO2) was monitored with an infrared analyzer (Model 01R-7101A; Nihon Kohden Corp., Tokyo, Japan). Respiratory frequency was adjusted to maintain PETCO2 between 35 and 40 mm Hg.\nFor the measurement of left ventricular function, a 5-MHZ single plane with 5 MHZ continuous-wave Doppler transesophageal echocardiographic transducer with four-way flexure (Model 21363A; Hewlett-Packard Co., Medical Products Group, Andover Mass.) was advanced from the incisor teeth into the esophagus for a distance of approximately 35 cm. For the measurement of aortic pressure, a fluid-filled catheter was advanced from the left femoral artery into the thoracic aorta. For the measurement of right atrial pressure, pulmonary arterial pressures and blood temperature, a 7-F, pentalumen, thermodilation-tip catheter was advanced from the left femoral vein and flow directed into the pulmonary artery. For inducing ventricular fibrillation (VF), a 5-F pacing catheter (EP Technologies, Inc., Mountain View, Calif.) was advanced from the right cephalic vein into the right ventricle until an electrocardiographic current of injury was recorded.\nVentricular fibrillation (VF) was induced and untreated for 7 minutes. Precordial compression (PC) was then initiated. After 2 minutes of precordial compression, animals were randomized to receive either the selective α2-adrenergic agent, α-methylnorepinephrine (100 μg/kg; catalog number M133, Research Biochemicals International) or epinephrine (30 μg/kg). Defibrillation was attempted 4 min. later. […] A lower incidence of post-resuscitation ventricular arrhythmias was again observed with those animals receiving α-methylnorepinephrine."}, "[3]": {"conditions": "immediately following administration, under spontaneous circulation and during CPR; cited from earlier work"}, "[4]": {"conditions": "compared with epinephrine; cited from earlier work"}}, "data": [{"smiles": "CNC[C@H](O)c1ccc(O)c(O)c1", "note": "[epinephrine]", "values": [{"measurement": "duration of post-resuscitation survival", "setting": "[1]", "value": 19, "unit": "h"}, {"measurement": "resuscitation outcome", "setting": "[1]", "value": "successfully resuscitated"}, {"measurement": "resuscitation outcome", "setting": "[2]", "value": "successfully resuscitated"}, {"measurement": "decrease of end tidal CO2 (ETCO2)", "setting": "[3]", "value": 50, "unit": "%"}]}, {"smiles": "COc1ccc(OC)c(C(O)C(C)N)c1", "note": "(centres unmarked) [methoxamine]", "values": [{"measurement": "effectiveness for restoring spontaneous circulation", "setting": "[4]", "value": "as effective as epinephrine"}]}, {"smiles": "CNC[C@H](O)c1cccc(O)c1", "note": "[phenylephrine]", "values": [{"measurement": "effectiveness for restoring spontaneous circulation", "setting": "[4]", "value": "as effective as epinephrine"}]}, {"smiles": "CC(N)[C@H](O)c1ccc(O)c(O)c1", "note": "(stereo partly drawn) [α-methylnorepinephrine, α-(1-aminoethyl),3,4-dihydroxybenzyl alcohol]", "values": [{"measurement": "post-resuscitation myocardial dysfunction as measured by dp/dt40", "setting": "[1]; 100 μg/kg, vs epinephrine or saline placebo, FIG. 1", "value": "significantly less severe"}, {"measurement": "post-resuscitation myocardial dysfunction as measured by negative dP/dt", "setting": "[1]; 100 μg/kg, vs epinephrine or saline placebo, FIG. 2", "value": "significantly less severe"}, {"measurement": "post-resuscitation myocardial dysfunction as measured by cardiac index (CI)", "setting": "[1]; 100 μg/kg, vs epinephrine or saline placebo, FIG. 3", "value": "significantly less severe"}, {"measurement": "duration of post-resuscitation survival", "setting": "[1]", "value": 72, "unit": "h"}, {"measurement": "resuscitation outcome", "setting": "[1]", "value": "successfully resuscitated"}, {"measurement": "incidence of post-resuscitation ventricular arrhythmias", "setting": "[1]; α-methylnorepinephrine 100 μg/kg vs epinephrine 30 μg/kg or saline placebo", "value": "significantly lower"}, {"measurement": "post-resuscitation left ventricular stroke volume", "setting": "[2]; 100 μg/kg vs epinephrine 30 μg/kg, transesophageal echo-Doppler, FIG. 5", "value": "markedly improved"}, {"measurement": "post-resuscitation ejection fraction", "setting": "[2]; 100 μg/kg vs epinephrine 30 μg/kg, transesophageal echo-Doppler, FIG. 6", "value": "markedly improved"}, {"measurement": "post-resuscitation cardiac output", "setting": "[2]; 100 μg/kg vs epinephrine 30 μg/kg, transesophageal echo-Doppler, FIG. 7", "value": "markedly improved"}, {"measurement": "incidence of post-resuscitation ventricular arrhythmias", "setting": "[2]; VF untreated 7 min, α-methylnorepinephrine 100 μg/kg vs epinephrine 30 μg/kg", "value": "lower"}, {"measurement": "resuscitation outcome", "setting": "[2]", "value": "successfully resuscitated"}]}]}
